# US7858635B2 (priority 2005, dated 2010)
# Key:
# [1] = target: T1, M1 muscarinic receptor (Homo sapiens, UniProt P11229); assay: Functional mobilization of intracellular calcium (FLIPR, Fluo-3), M1-CHO cells; type: cell-based; settings: compound nos. 1-454; for Emax: 100% efficacy is the maximum response obtained with the Carbachol control, read-out: M1 Efficacy
# T1 construct: expressed in transfected cells; host or cells: CHO cells (M1-CHO, under zeocin and G418 selection)
# T1 sequence (P11229 1-460): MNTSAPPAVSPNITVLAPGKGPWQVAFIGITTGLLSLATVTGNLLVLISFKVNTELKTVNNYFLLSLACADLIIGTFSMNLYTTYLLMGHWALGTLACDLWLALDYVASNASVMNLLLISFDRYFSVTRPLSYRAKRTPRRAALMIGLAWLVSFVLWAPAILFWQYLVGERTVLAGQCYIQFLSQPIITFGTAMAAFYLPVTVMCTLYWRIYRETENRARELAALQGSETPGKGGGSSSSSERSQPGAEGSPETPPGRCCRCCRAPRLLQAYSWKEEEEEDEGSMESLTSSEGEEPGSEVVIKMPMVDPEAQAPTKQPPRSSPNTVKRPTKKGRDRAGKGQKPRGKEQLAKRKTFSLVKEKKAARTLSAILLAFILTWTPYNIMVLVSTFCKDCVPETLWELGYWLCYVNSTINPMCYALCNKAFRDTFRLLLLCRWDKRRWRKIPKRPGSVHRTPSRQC
# Summary of the method: (§1)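 Intracellular calcium was tracked by fluorescence (488/540 nm) over 60 sec after compound addition to dye-loaded CHO cells expressing the receptor. Inhibitory activity used a 15 min pre-incubation before carbachol at the subtype EC80.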
# [2] = target: T2, M4 muscarinic receptor (Homo sapiens, UniProt P08173); assay: Functional mobilization of intracellular calcium (FLIPR, Fluo-3), M4-CHO cells; type: cell-based; settings: compound nos. 1-454; for Emax: 100% efficacy is the maximum response obtained with the Carbachol control, read-out: M4 Efficacy
# T2 construct: expressed in transfected cells; host or cells: CHO cells (M4-CHO, under puromycin, zeocin and blasticidin selection)
# T2 sequence (P08173 1-479): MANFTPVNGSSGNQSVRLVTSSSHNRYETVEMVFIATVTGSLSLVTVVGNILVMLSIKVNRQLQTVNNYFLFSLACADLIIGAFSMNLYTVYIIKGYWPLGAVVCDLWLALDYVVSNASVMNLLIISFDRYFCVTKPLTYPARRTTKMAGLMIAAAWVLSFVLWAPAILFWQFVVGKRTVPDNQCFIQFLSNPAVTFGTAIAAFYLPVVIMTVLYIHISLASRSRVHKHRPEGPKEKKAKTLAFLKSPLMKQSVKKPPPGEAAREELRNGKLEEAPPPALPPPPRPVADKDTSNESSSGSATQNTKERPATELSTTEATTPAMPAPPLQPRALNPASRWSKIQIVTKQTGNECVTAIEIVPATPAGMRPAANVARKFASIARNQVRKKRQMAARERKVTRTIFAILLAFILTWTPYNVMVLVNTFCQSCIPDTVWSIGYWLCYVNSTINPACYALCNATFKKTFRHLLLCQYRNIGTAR
# Summary of the method: as §1
# [3] = M1-CHO cells, calcium mobilization
# [4] = M4-CHO cells, calcium mobilization
Structure (SMILES),M1 Activity [1],Emax [1],M4 Activity [2],Emax [2],"M1 Activity [1, 3]","M4 Activity [2, 4]"
Fc1ccc2c(c1)C1(CCN(C3CC4CCC3C4)CC1)CN2 (stereo not shown) [compound 416],+ (activity was measured to be greater than or equal to 3.0 μM),< 65%,+ (activity was measured to be greater than or equal to 4.0 μM),< 55%,–,–
CCOC(=O)N1CCC(N2CCC3(CC2)CN(C(=O)O[C@H]2CCOC2)c2ccc(F)cc23)CC1 [compound 428],++ (activity was measured to be between 0.7 μM and 3.0 μM),< 65%,+ (activity was measured to be greater than or equal to 4.0 μM),< 55%,–,–
O=C(C1CC1)N1CC2(CCN(C3CC4CCC(C3)N4C(=O)O[C@H]3CCOC3)CC2)c2cc(F)ccc21 (stereo partly shown) [compound 57],–,65 to 85%,–,55 to 70%,+++ (activity was measured to be less than or equal to 0.7 μM),+++ (activity was measured to be less than or equal to 0.1 μM)
O=C(O[C@@H]1CCOC1)N1CC2(CCN(C3CC4CCC(C3)N4C(=O)O[C@@H]3CCOC3)CC2)c2cc(F)ccc21 (stereo partly shown) [compound 243],–,65 to 85%,–,55 to 70%,+++ (activity was measured to be less than or equal to 0.7 μM),+ (activity was measured to be greater than or equal to 4.0 μM)
CCOC(=O)N1CCC(N2CCC3(CC2)CN(C(C)=O)c2ccc(C4CC4)cc23)CC1 [compound 245],–,< 65%,–,> 70%,++ (activity was measured to be between 0.7 μM and 3.0 μM),++ (activity was measured to be between 0.1 μM and 4.0 μM)
COC(=O)N1CCCC(N2CCC3(CC2)CN(C(C)=O)c2ccc(F)cc23)CC1 (stereo not shown) [compound 132],–,> 85%,–,> 70%,+++ (activity was measured to be less than or equal to 0.7 μM),+++ (activity was measured to be less than or equal to 0.1 μM)
Clc1ccc2c(c1)C1(CCN(CC3CCCCC3)CC1)CN2 [compound 157],–,65 to 85%,–,> 70%,+++ (activity was measured to be less than or equal to 0.7 μM),+ (activity was measured to be greater than or equal to 4.0 μM)
CN(C)C(=O)N1CC2(CCN(C3CCN(C(=O)O[C@@H]4CCOC4)CC3)CC2)c2cc(F)ccc21 [compound 209],–,> 85%,–,< 55%,++ (activity was measured to be between 0.7 μM and 3.0 μM),+ (activity was measured to be greater than or equal to 4.0 μM)
CCCOC(=O)N1CCC(N2CCC3(CC2)CN(C(C)=O)c2ccc(F)cc23)CC1 [compound 79],–,< 65%,–,< 55%,++ (activity was measured to be between 0.7 μM and 3.0 μM),+ (activity was measured to be greater than or equal to 4.0 μM)
CC(=O)N1CC2(CCN(CC3=CCCCC3)CC2)c2cc(F)ccc21 [compound 163],–,65 to 85%,–,> 70%,+++ (activity was measured to be less than or equal to 0.7 μM),++ (activity was measured to be between 0.1 μM and 4.0 μM)
CCOC(=O)N1CCC(N2CCC3(CC2)C(=O)Nc2ccccc23)CC1 [compound 191],–,65 to 85%,–,55 to 70%,+++ (activity was measured to be less than or equal to 0.7 μM),+ (activity was measured to be greater than or equal to 4.0 μM)
CCOC(=O)N1CCC(N2CCC3(CC2)CNc2ccccc23)CC1 [compound 352],–,> 85%,–,> 70%,+++ (activity was measured to be less than or equal to 0.7 μM),+ (activity was measured to be greater than or equal to 4.0 μM)
CCOC(=O)N1C2CCC1CC(N1CCC3(CC1)CNc1ccccc13)C2 (stereo not shown) [compound 153],–,> 85%,–,> 70%,+++ (activity was measured to be less than or equal to 0.7 μM),+++ (activity was measured to be less than or equal to 0.1 μM)
Cc1cc(C(=O)N2CC3(CCN(C4CC5CCC(C4)N5C(=O)O[C@H]4CCOC4)CC3)c3cc(F)ccc32)nn1C (stereo partly shown) [compound 233],–,65 to 85%,–,> 70%,+++ (activity was measured to be less than or equal to 0.7 μM),+++ (activity was measured to be less than or equal to 0.1 μM)
"COCCOC(=O)N1C2CCC1CC(N1CCC3(CC1)CN(C(=O)N(C)C)c1ccc(F)cc13)C2 (stereo not shown) [compound 119, 2-methoxyethyl 3-(1-(dimethylcarbamoyl)-5-fluorospiro[indoline-3,4′-piperidine]-1′-yl)-8-azabicyclo[3.2.1]octane-8-carboxylate]",–,< 65%,–,< 55%,+++ (activity was measured to be less than or equal to 0.7 μM),+ (activity was measured to be greater than or equal to 4.0 μM)
CC(C)OC(=O)N1C2CCC1CC(N1CCC3(CC1)C(=O)Nc1ccccc13)C2 (stereo not shown) [compound 139],–,> 85%,–,> 70%,+++ (activity was measured to be less than or equal to 0.7 μM),+++ (activity was measured to be less than or equal to 0.1 μM)
CCOC(=O)N1C2CCC1CC(N1CCC3(CC1)CN(C(=O)C1CC1)c1ccc(F)cc13)C2 (stereo not shown) [compound 214],–,< 65%,–,< 55%,+ (activity was measured to be greater than or equal to 3.0 μM),+ (activity was measured to be greater than or equal to 4.0 μM)
CC(=O)N1CC2(CCN(C3CCN(C(=O)OC4CCC4)CC3)CC2)c2cc(C)ccc21 [compound 151],–,> 85%,–,> 70%,+++ (activity was measured to be less than or equal to 0.7 μM),+++ (activity was measured to be less than or equal to 0.1 μM)
CCOC(=O)N1CCC(N2CCC3(CC2)CN(C(C)=O)c2ccc(C)cc23)CC1 [compound 92],–,65 to 85%,–,< 55%,+++ (activity was measured to be less than or equal to 0.7 μM),++ (activity was measured to be between 0.1 μM and 4.0 μM)
CCOC(=O)N[C@H]1CC2(CCN(C[C@H]3C[C@H]4CC[C@H]3C4)CC2)c2ccccc21 [compound 326],–,< 65%,–,< 55%,+ (activity was measured to be greater than or equal to 3.0 μM),+ (activity was measured to be greater than or equal to 4.0 μM)
CCOC(=O)N1CCC(N2CCC3(CC2)CN(C(C)=O)c2ccc(OC)cc23)CC1 [compound 340],–,< 65%,–,< 55%,++ (activity was measured to be between 0.7 μM and 3.0 μM),+ (activity was measured to be greater than or equal to 4.0 μM)
O=C1Nc2ccccc2C12CCN(CC1CC3C=CC1C3)CC2 (stereo not shown) [compound 7],–,65 to 85%,–,> 70%,+++ (activity was measured to be less than or equal to 0.7 μM),++ (activity was measured to be between 0.1 μM and 4.0 μM)
